Experimental data: ChEMBL document CHEMBL3875150, “Biological evaluation of some new N-(2,6-dimethoxypyrimidinyl) thioureido benzenesulfonamide derivatives as potential antimicrobial and anticancer agents” (Eur J Med Chem, 2016)
In brackets after ≈: the same amount, converted by molar mass.

Columns and labels:
[1] = system: Streptococcus pneumoniae; test: Antibacterial activity against Streptococcus pneumoniae RCMB 010010 after 24 to 48 hrs by agar well diffusion method; format: functional
[2] = system: MCF7; test: (§1) Cytotoxicity against human MCF7 cells assessed as decrease in cell viability after 24 hrs by MTT assay; format: functional, cell-based
[3] = as §1; format: functional, cell-based; details: MCF7, 24 h
[4] = system: Pseudomonas aeruginosa; test: Antibacterial activity against Pseudomonas aeruginosa RCMB 010043 after 24 to 48 hrs by agar well diffusion method; format: functional
[5] = system: Candida albicans; test: Antifungal activity against Candida albicans RCMB 005036 assessed as diameter of inhibition zone at 1 mg/mL after 24 to 48 hrs by agar well diffusion method; format: functional; details: read-out: DIZ
[6] = system: Streptococcus pneumoniae; test: Antibacterial activity against Streptococcus pneumoniae RCMB 010010 assessed as diameter of inhibition zone at 1 mg/mL after 24 to 48 hrs by agar well diffusion method; format: functional; details: read-out: DIZ
[7] = system: Escherichia coli; test: Antibacterial activity against Escherichia coli RCMB 010052 after 24 to 48 hrs by agar well diffusion method; format: functional
[8] = system: Pseudomonas aeruginosa; test: Antibacterial activity against Pseudomonas aeruginosa RCMB 010043 assessed as diameter of inhibition zone at 1 mg/mL after 24 to 48 hrs by agar well diffusion method; format: functional; details: read-out: DIZ
[9] = system: Bacillus subtilis; test: Antibacterial activity against Bacillus subtilis RCMB 010067 assessed as diameter of inhibition zone at 1 mg/mL after 24 to 48 hrs by agar well diffusion method; format: functional; details: read-out: DIZ
[10] = system: Escherichia coli; test: Antibacterial activity against Escherichia coli RCMB 010052 assessed as diameter of inhibition zone at 1 mg/mL after 24 to 48 hrs by agar well diffusion method; format: functional; details: read-out: DIZ
[11] = system: Candida albicans; test: Antifungal activity against Candida albicans RCMB 005036 after 24 to 48 hrs by agar well diffusion method; format: functional
[12] = system: Aspergillus fumigatus; test: Antifungal activity against Aspergillus fumigatus RCMB 002568 assessed as diameter of inhibition zone at 1 mg/mL after 48 hrs by agar well diffusion method; format: functional; details: RCMB 002568, 48 h, read-out: DIZ
[13] = system: Bacillus subtilis; test: Antibacterial activity against Bacillus subtilis RCMB 010067 after 24 to 48 hrs by agar well diffusion method; format: functional
[14] = system: Aspergillus fumigatus; test: Antifungal activity against Aspergillus fumigatus RCMB 002568 after 24 to 48 hrs by agar well diffusion method; format: functional

| SMILES | MIC [1] [µg/mL] | MIC [4] [µg/mL] | MIC [7] [µg/mL] | MIC [11] [µg/mL] | MIC [13] [µg/mL] | MIC [14] [µg/mL] | Activity [2] | IC50 [3] [µg/mL] | zone of inhibition at 1000 µg/mL [5] [mm] | zone of inhibition at 1000 µg/mL [6] [mm] | zone of inhibition at 1000 µg/mL [8] [mm] | zone of inhibition at 1000 µg/mL [9] [mm] | zone of inhibition at 1000 µg/mL [10] [mm] | zone of inhibition at 1000 µg/mL [12] [mm] |
| --- | --- | --- | --- | --- | --- | --- | --- | --- | --- | --- | --- | --- | --- | --- |
| CCSc1nnc(NC(=S)Nc2ccc(S(=O)(=O)Nc3cc(OC)nc(OC)n3)cc2)s1 | – | – | – | – | – | – | Dose-dependent effect | 119 (≈ 232 µM) | 12.5 | – | – | – | – | 14.3 |
| COc1cc(NS(=O)(=O)c2ccc(NC(=S)Nc3cc(C)nc4ccccc34)cc2)nc(OC)n1 | 125 (≈ 245 µM) | 500 (≈ 979 µM) | 125 (≈ 245 µM) | 125 (≈ 245 µM) | 125 (≈ 245 µM) | 125 (≈ 245 µM) | Dose-dependent effect | 68.7 (≈ 135 µM) | 14.5 | 13.9 | 8.9 | 14.4 | 15 | 13.7 |
| O=C(O)c1cn(C2CC2)c2cc(N3CCNCC3)c(F)cc2c1=O [CIPROFLOXACIN] | 0.98 (≈ 2.96 µM) | – | – | – | 0.1 (≈ 0.302 µM) | – | – | – | – | 22.4 | 21.3 | 27.2 | 25.8 | – |
| COc1cc(NS(=O)(=O)c2ccc(NC(=S)Nc3ccc4c(c3)oc(=O)c3ccccc34)cc2)nc(OC)n1 | – | – | – | – | – | – | Dose-dependent effect | 40.3 (≈ 71.5 µM) | 13.1 | – | – | – | 7.8 | 14.2 |
| COc1cc(NS(=O)(=O)c2ccc(NC(=S)Nc3cccnc3)cc2)nc(OC)n1 | – | – | – | – | – | – | Dose-dependent effect | 170 (≈ 380 µM) | – | – | – | – | – | – |
| COc1cc(NS(=O)(=O)c2ccc(NC(=S)Nc3nnc(C)c(C)n3)cc2)nc(OC)n1 | – | – | – | – | – | – | Dose-dependent effect | 44.8 (≈ 94 µM) | – | – | – | – | – | – |

More lines, main results first:

| MIC [1] [µg/mL] | MIC [4] [µg/mL] | MIC [7] [µg/mL] | MIC [11] [µg/mL] | MIC [13] [µg/mL] | MIC [14] [µg/mL] | SMILES | Activity [2] | IC50 [3] [µg/mL] | zone of inhibition at 1000 µg/mL [5] [mm] | zone of inhibition at 1000 µg/mL [6] [mm] | zone of inhibition at 1000 µg/mL [8] [mm] | zone of inhibition at 1000 µg/mL [9] [mm] | zone of inhibition at 1000 µg/mL [10] [mm] | zone of inhibition at 1000 µg/mL [12] [mm] |
| --- | --- | --- | --- | --- | --- | --- | --- | --- | --- | --- | --- | --- | --- | --- |
| 0.98 (≈ 1.96 µM) | 62.5 (≈ 125 µM) | 0.49 (≈ 0.979 µM) | 1.95 (≈ 3.9 µM) | 0.49 (≈ 0.979 µM) | 0.98 (≈ 1.96 µM) | COc1cc(NS(=O)(=O)c2ccc(NC(=S)NN3C(=O)CSC3=S)cc2)nc(OC)n1 | Dose-dependent effect | 47.7 (≈ 95.3 µM) | 22.3 | 24.3 | 14.9 | 28.1 | 27.2 | 24.3 |
| 0.98 (≈ 2.19 µM) | 62.5 (≈ 140 µM) | 0.49 (≈ 1.09 µM) | 1.95 (≈ 4.36 µM) | 0.98 (≈ 2.19 µM) | 0.98 (≈ 2.19 µM) | COc1cc(NS(=O)(=O)c2ccc(NC(=S)Nc3cnccn3)cc2)nc(OC)n1 | Dose-dependent effect | > 200 | 23.4 | 25.8 | 18.3 | 26.4 | 28.7 | 24.9 |
| 3.9 (≈ 7.13 µM) | 500 (≈ 915 µM) | 7.81 (≈ 14.3 µM) | 7.81 (≈ 14.3 µM) | 3.9 (≈ 7.13 µM) | 7.81 (≈ 14.3 µM) | CCOc1ccc2nc(NC(=S)Nc3ccc(S(=O)(=O)Nc4cc(OC)nc(OC)n4)cc3)sc2c1 | Dose-dependent effect | > 200 | 19.1 | 20.3 | 9.2 | 21.3 | 18.3 | 18.3 |
| 125 (≈ 228 µM) | > 1000 | 125 (≈ 228 µM) | 250 (≈ 457 µM) | 125 (≈ 228 µM) | 250 (≈ 457 µM) | COc1cc(NS(=O)(=O)c2ccc(NC(=S)Nc3nc4ccc([N+](=O)[O-])cc4s3)cc2)nc(OC)n1 | Dose-dependent effect | 9.43 (≈ 17.2 µM) | 10.8 | 13.3 | – | 14.1 | 13.3 | 11.7 |
| 1.95 (≈ 3.87 µM) | 250 (≈ 496 µM) | 0.98 (≈ 1.95 µM) | 3.9 (≈ 7.74 µM) | 0.98 (≈ 1.95 µM) | 1.95 (≈ 3.87 µM) | COc1cc(NS(=O)(=O)c2ccc(NC(=S)Nc3cccc4nsnc34)cc2)nc(OC)n1 | Dose-dependent effect | > 200 | 20.4 | 22.7 | 11.7 | 26.3 | 24.2 | 22.3 |
